This is an account of results in US4401677A, “Enkephalinase inhibitors” (E. R. Squibb & Sons, Inc., priority 1981, dated 1983).

pIC50: −log10 of the molar value.

The first assay relates to enkephalinase.
Assay: not given
Conditions: cited from earlier work.
On to `O=C(O)CNC(=O)C(CS)Cc1ccccc1` (racemic) [thiorphan, [(DL-3-mercapto-2-benzylpropanoyl)]-glycine], for which the “inhibitor of enkephalinase in vitro” value is on record as “inhibitor of enkephalinase in vitro in nanomolar concentration”.

A further assay concerns the target T1, enkephalinase purified from membrane fractions of sheep corpus striatum (Ovis aries, UniProt A0ACI6S0K5).
T1 sequence (A0ACI6S0K5 2-750): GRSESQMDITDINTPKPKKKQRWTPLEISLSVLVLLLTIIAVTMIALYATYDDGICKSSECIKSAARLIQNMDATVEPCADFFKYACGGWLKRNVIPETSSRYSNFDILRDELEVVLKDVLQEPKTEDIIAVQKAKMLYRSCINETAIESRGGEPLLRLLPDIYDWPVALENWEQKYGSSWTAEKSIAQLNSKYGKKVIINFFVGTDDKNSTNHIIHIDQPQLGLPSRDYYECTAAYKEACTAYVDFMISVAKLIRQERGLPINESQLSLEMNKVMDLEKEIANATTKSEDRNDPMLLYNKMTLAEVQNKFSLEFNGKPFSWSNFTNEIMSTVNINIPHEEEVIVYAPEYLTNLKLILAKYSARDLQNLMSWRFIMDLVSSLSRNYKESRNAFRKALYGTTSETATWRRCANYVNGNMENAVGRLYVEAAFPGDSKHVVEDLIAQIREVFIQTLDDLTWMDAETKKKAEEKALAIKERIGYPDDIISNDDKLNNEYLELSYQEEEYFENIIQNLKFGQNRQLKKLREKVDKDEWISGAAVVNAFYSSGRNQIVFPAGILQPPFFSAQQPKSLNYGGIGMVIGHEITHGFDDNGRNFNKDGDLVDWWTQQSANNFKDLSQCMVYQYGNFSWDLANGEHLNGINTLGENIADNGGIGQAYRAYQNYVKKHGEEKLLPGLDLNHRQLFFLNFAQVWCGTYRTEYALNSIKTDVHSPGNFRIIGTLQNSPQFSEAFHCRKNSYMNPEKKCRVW
In words: inhibition of cleavage of [^3 H-Tyr^1, Leu^5 ]-enkephalin by purified enkephalinase (radiochromatographic method). The class given is biochemical. Conditions: 70 nM substrate, pH 7.0, 15 minutes at 37°; called I50. Here is the method: Frozen sheep striatia were homogenized in 20 volumes of 50 mM Tris (i.e., 2-amino-2-hydroxymethyl-1,3-propanediol)-hydrochloric acid buffer, pH 7.7, and centrifuged at 37,000×g. for 15 minutes. The sedimented material (membrane fraction), after being washed three times by resuspension and recentrifugation, was solubilized by stirring with half the original volume of 50 mM Tris-hydrochloric acid buffer, pH 7.7, containing 1% Triton X-100 (i.e., polyethylene glycol p-isooctylphenyl ether) nonionic detergent, followed by centrifugation for 2 hours at 37,000×g. […] Protein was eluted from the column with a one liter gradient of 0-0.4 M sodium chloride in the same buffer mixture, with 8.7 ml. fractions being collected.
Activity of the enzyme for purification and inhibitor studies was determined by the following radiochromatographic method. […] An aliquot of 0.01 ml. of acidified reaction mixture was spotted onto a Whatman LK 50 silica gel thin-layer chromatography plate along with the appropriate peptide standards. After development of the plate in a solvent composed of isopropanol:ethyl acetate:5% acetic acid (2:2:1), the spots corresponding to Tyr, Tyr-Gly, Tyr-Gly-Gly, and unreacted enkephalin (Tyr-Gly-Gly-Phe-Leu), as visualized with ninhydrin reaction, were scraped from the plate, and the incorporated radioactivity was counted in a liquid scintillation counter.
One may read the pIC50 as the IC50 on a negative log10 scale, so that one unit is a factor of ten. Higher therefore signals a small IC50. As for `CC(CS)C(=O)N[C@@H](Cc1ccc(O)c(O)c1)C(=O)O` (mixture of isomers) [Ex. 5, 3-Hydroxy-N-(DL-3-mercapto-2-methyl-1-oxopropyl)-L-tyrosine], the pIC50 was 8.30.
`CC(CS)C(=O)N[C@@H](Cc1ccc(O)cc1)C(=O)O` (mixture of isomers) [Ex. 4, N-(DL-3-Mercapto-2-methyl-1-oxopropyl)-L-tyrosine] had a pIC50 of 8.60.
Same read-out and setting: the value for `CC(CS)C(=O)N[C@@H](Cc1c[nH]c2ccccc12)C(=O)O` (mixture of isomers) [Ex. 3, N-(DL-3-Mercapto-2-methyl-1-oxopropyl)-L-tryptophan] was 8.30.
On the same count and under the same terms, the figure for `CC(CS)C(=O)N[C@@H](CCCNC(=N)N)C(=O)O` (mixture of isomers) [Ex. 1, N-(DL-3-Mercapto-2-methyl-1-oxopropyl)-L-arginine] is 6.82; for `C[C@H](CS)C(=O)N[C@@H](Cc1ccc(O)c(O)c1)C(=O)O` [Ex. 6, 3-Hydroxy-N-(D-3-mercapto-2-methyl-1-oxopropyl)-L-tyrosine] it is 8.60.
On to `N=C(N)NCCC[C@H](NC(=O)C(CS)Cc1ccccc1)C(=O)O` (mixture of isomers) [Ex. 2, N-[DL-2-(Mercaptomethyl)-1-oxo-3-phenylpropyl]-L-arginine], for which the negative-log IC50 (pIC50) is 7.07.
`CC(C)CC(CS)C(=O)N[C@@H](CCCNC(=N)N)C(=O)O` (mixture of isomers) [Ex. 7, (±)-N^2-[2-(Mercaptomethyl)-4-methyl-1-oxopentyl]-L-arginine] had a pIC50 of 7.52.
